From patent publication US12049450B2, “Pyridyloxy-carboxylate derivative and preparation method therefor, herbicidal composition, and use” (Qingdao Kingagroot Chemical Compound Co., Ltd., priority 2018, dated 2024)

Assays:
Test in all cases: Post-emergence test experiment (greenhouse pot, spray at 2-3 leaf stage)
Format in all cases: in vivo
Conditions in all cases: 1000 g/ha; post-emergence spray at 2-3 leaf stage; assessed after 3 weeks; fresh weight inhibition rate
Abutilon theophrasti = system: Abutilon theophrasti
Summary of the method: (§1)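 Weed seeds sown in soil-filled pots in greenhouse, sprayed at 2-3 leaf stage (2 weeks after sowing) with compound in acetone/tween-80 plus methyl oleate emulsible concentrate (1.5 L/ha) diluted in water. Fresh-weight growth inhibition scored after 3 weeks on 0-5 scale (5: >85%, 0: <5%).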

Digitaria sanguinalis = system: Digitaria sanguinalis
Summary of the method: as §1

Echinochloa crusgalli = system: Echinochloa crusgalli
Summary of the method: as §1

Monochoria vaginalis = system: Monochoria vaginalis
Summary of the method: as §1

Galium spurium = system: Galium spurium
Summary of the method: as §1

SMILES	Activity level (growth inhibition rate) Abutilon theophrasti (Abutilon theophrasti)	Activity level (growth inhibition rate) Digitaria sanguinalis (Digitaria sanguinalis)	Activity level (growth inhibition rate) Echinochloa crusgalli (Echinochloa crusgalli)	Activity level (growth inhibition rate) Monochoria Vaginalis (Monochoria vaginalis)	Activity level (growth inhibition rate) Galium spurium (Galium spurium)
CC(Oc1nc(F)c(Cl)c(N)c1Cl)C(=O)OCc1ccc(N(C)C)cc1 (stereo not drawn) [Compound 93]	5 (Level 5: the growth inhibition rate is greater than 85%)	5 (Level 5: the growth inhibition rate is greater than 85%)	5 (Level 5: the growth inhibition rate is greater than 85%)	5 (Level 5: the growth inhibition rate is greater than 85%)	5 (Level 5: the growth inhibition rate is greater than 85%)
CC(Oc1nc(F)c(Cl)c(N)c1Cl)C(=O)OCc1cscn1 (stereo not drawn) [Compound 158]	5 (Level 5: the growth inhibition rate is greater than 85%)	5 (Level 5: the growth inhibition rate is greater than 85%)	5 (Level 5: the growth inhibition rate is greater than 85%)	5 (Level 5: the growth inhibition rate is greater than 85%)	5 (Level 5: the growth inhibition rate is greater than 85%)
CC(Oc1nc(F)c(Cl)c(N)c1Cl)C(=O)OCn1cncn1 (stereo not drawn) [Compound 136]	5 (Level 5: the growth inhibition rate is greater than 85%)	5 (Level 5: the growth inhibition rate is greater than 85%)	5 (Level 5: the growth inhibition rate is greater than 85%)	5 (Level 5: the growth inhibition rate is greater than 85%)	5 (Level 5: the growth inhibition rate is greater than 85%)
CC(Oc1nc(F)c(Cl)c(N)c1Cl)C(=O)OCc1ccc2c(ccn2C)c1 (stereo not drawn) [Compound 171]	5 (Level 5: the growth inhibition rate is greater than 85%)	5 (Level 5: the growth inhibition rate is greater than 85%)	5 (Level 5: the growth inhibition rate is greater than 85%)	5 (Level 5: the growth inhibition rate is greater than 85%)	5 (Level 5: the growth inhibition rate is greater than 85%)
CC(Oc1nc(F)c(Cl)c(N)c1Cl)C(=O)OCc1ncno1 (stereo not drawn) [Compound 151]	5 (Level 5: the growth inhibition rate is greater than 85%)	5 (Level 5: the growth inhibition rate is greater than 85%)	5 (Level 5: the growth inhibition rate is greater than 85%)	5 (Level 5: the growth inhibition rate is greater than 85%)	5 (Level 5: the growth inhibition rate is greater than 85%)
CC(Oc1nc(F)c(Cl)c(N)c1Cl)C(=O)OCc1ccccc1Br (stereo not drawn) [Compound 205]	5 (Level 5: the growth inhibition rate is greater than 85%)	5 (Level 5: the growth inhibition rate is greater than 85%)	5 (Level 5: the growth inhibition rate is greater than 85%)	5 (Level 5: the growth inhibition rate is greater than 85%)	5 (Level 5: the growth inhibition rate is greater than 85%)
